This passage reports melting point and Kb results from patent US10556870B2, “Imidazole compounds as EAAT3 inhibitors” (Hoffmann-La Roche Inc., priority 2016, dated 2020).

In data set [1] the target is T1, human EAAT3 (Homo sapiens, UniProt P43005).
T1 construct: expressed in transfected cells
T1 sequence (P43005 1-524): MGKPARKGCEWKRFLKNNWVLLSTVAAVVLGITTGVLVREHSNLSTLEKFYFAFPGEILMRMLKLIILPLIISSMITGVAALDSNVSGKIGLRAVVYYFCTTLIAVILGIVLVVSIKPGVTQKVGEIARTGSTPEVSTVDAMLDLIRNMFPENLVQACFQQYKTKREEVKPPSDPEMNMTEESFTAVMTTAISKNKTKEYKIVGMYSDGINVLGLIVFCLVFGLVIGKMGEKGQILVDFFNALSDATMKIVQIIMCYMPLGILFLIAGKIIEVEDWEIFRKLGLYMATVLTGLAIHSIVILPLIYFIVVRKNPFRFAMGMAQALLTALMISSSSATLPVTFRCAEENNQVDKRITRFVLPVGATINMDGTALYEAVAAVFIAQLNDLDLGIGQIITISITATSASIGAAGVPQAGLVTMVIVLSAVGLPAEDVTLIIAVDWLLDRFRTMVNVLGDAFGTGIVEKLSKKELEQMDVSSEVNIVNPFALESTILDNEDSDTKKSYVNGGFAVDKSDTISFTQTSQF
The data set can be described thus: FLIPR Membrane Potential (FMP) assay, antagonist potency at human EAAT3 with L-glutamate as agonist. It is filed as cell-based. The conditions noted are these: HEK-293 cells stably expressing human EAAT3; L-glutamate at 80% of maximum response; antagonist applied 15 min before agonist; Kb by Cheng-Prusoff equation. As for the experimental part:
The FLIPR Membrane Potential (FMP) Assay
HEK-293 cells stably expressing human EAAT3 were seeded at 55 000 cells/well in growth medium (DMEM glutamate free (Invitrogen 11960-044), 1% Pen Strep (10 ml/l GIBCO BRL No 15140-023), 10% FCS non dialysed heat inactivated, 5 mg/l puromycin) in poly-D-lysine treated 96-well black microtiter plates with clear-bottom. After 24 h, the growth medium was removed and 100 μl/well of Krebs buffer (140 mM NaCl, 4.7 mM KCl, 2.5 mM CaCl2, 1.2 mM MgCl2, 11 mM HEPES, 10 mM D-glucose, pH=7.4) added. The cells were then loaded by adding 100 μl/well FMP assay dye (FLIPR Membrane Potential assay reagent, Molecular Devices). The 96-well plates were then incubated at 37° C. for 1 h. The depolarization of the cells will cause more dye to enter in the cells, where it will bind to intracellular proteins and lipids and cause an increase in the fluorescence signal. Antagonist potency at human EAAT3 was determined by using L-glutamate as agonist at a concentration which gives 80% of the maximum response. The antagonists were applied 15 min before the application of the agonist L-glutamate. The assays were performed at room temperature and measurements done by using a Fluorometric Imaging Plate Reader (FLIPR, Molecular Devices) and filter #2. Responses were measured as peak increase in fluorescence minus basal (i.e. fluorescence without addition of L-glutamate). Kb was determined using the Cheng-Prusoff equation Kb=IC50/[1+(A/EC50)], where IC50 is the concentration of the antagonist producing 50% inhibition, A is the concentration of the agonist against which the IC50 is being determined (at EC50) and EC50 is the concentration of the agonist producing […].

`CC(C)n1cncc1-c1cc(C(=O)NC(C)(C)C)cc(-c2ccc(C(F)(F)F)cc2)c1` [Example 2, N-tert-Butyl-3-(3-propan-2-yl-imidazol-4-yl)-5-[4-(trifluoromethyl)-phenyl]-benzamide]: the melting point is 88 °C. Besides, the Kb in data set [1] was 270 nM.
`CC(C)n1cncc1-c1cc(C(=O)NC(C)(C)C)cc(-c2ccc(F)cc2)c1` [Example 1, N-tert-Butyl-3-(4-fluorophenyl)-5-(3-propan-2-yl-imidazol-4-yl)-benzamide] yielded a melting point of 85 °C. In data set [1], this compound had a Kb of 160 nM.
With `Cn1cncc1-c1cc(C(=O)NC(C)(C)C)cc(-c2ccc(F)cc2)c1` [Example 6, N-tert-Butyl-3-(4-fluorophenyl)-5-(3-methyl-imidazol-4-yl)-benzamide], the melting point came to 62 °C. This compound also returned a Kb in data set [1] of 270 nM.
On the same counts, the results for `CC(C)(C)NC(=O)c1cc(-c2ccc(Cl)cc2)cc(-c2cncn2C(C)(C)C)c1` [Example 7, N-tert-Butyl-3-(3-tert-butyl-imidazol-4-yl)-5-(4-chlorophenyl)-benzamide] are 92 °C and 200 nM.
As to `CCn1cncc1-c1cc(C(=O)NC(C)(C)C)cc(-c2ccc(Cl)cc2)c1` [Example 8, N-tert-Butyl-3-(4-chlorophenyl)-5-(3-ethyl-imidazol-4-yl)-benzamide], the melting point amounted to 89 °C. In addition, the Kb in data set [1] was found to be 190 nM.
For `CC(C)(C)NC(=O)c1cc(-c2ccc(F)cc2)cc(-c2cncn2C(C)(C)C)c1` [Example 11, N-tert-Butyl-3-(3-tert-butyl-imidazol-4-yl)-5-(4-fluorophenyl)-benzamide], the melting point came to 96 °C. In data set [1], this compound had a Kb of 210 nM.
In the case of `Cn1cncc1-c1cc(C(=O)NC(C)(C)C)cc(-c2ccc(Cl)cc2)c1` [Example 4, N-tert-Butyl-3-(4-chlorophenyl)-5-(3-methyl-imidazol-4-yl)-benzamide], the melting point was 79.5 °C. In data set [1], this compound showed a Kb of 290 nM.
As for `CC(C)(C)NC(=O)c1cc(-c2ccc(C(F)(F)F)cc2)cc(-c2cncn2C(C)(C)C)c1` [Example 12, N-tert-Butyl-3-(3-tert-butyl-imidazol-4-yl)-5-[4-(trifluoromethyl)-phenyl]-benzamide], the melting point is 87 °C. This compound came in with a Kb in data set [1] of 270 nM.
For the compound `CCn1cncc1-c1cc(C(=O)NC(C)(C)C)cc(-c2ccc(F)cc2)c1` [Example 9, N-tert-Butyl-3-(3-ethyl-imidazol-4-yl)-5-(4-fluorophenyl)-benzamide], the melting point was found to be 79 °C. In data set [1], this compound yielded a Kb of 160 nM.
As for `CCn1cncc1-c1cc(C(=O)NC(C)(C)C)cc(-c2ccc(C(F)(F)F)cc2)c1` [Example 10, N-tert-Butyl-3-(3-ethyl-imidazol-4-yl)-5-[4-(trifluoromethyl)-phenyl]-benzamide], the melting point came to 87 °C. The compound further returned a Kb in data set [1] of 230 nM.
On the same counts, the results for `CC(C)n1cncc1-c1cc(C(=O)NC(C)(C)C)cc(-c2ccc(Cl)cc2)c1` [Example 3, N-tert-Butyl-3-(4-chlorophenyl)-5-(3-propan-2-yl-imidazol-4-yl)-benzamide] are 97.5 °C and 140 nM.
Regarding `Cn1cncc1-c1cc(C(=O)NC(C)(C)C)cc(-c2ccc(C(F)(F)F)cc2)c1` [Example 5, N-tert-Butyl-3-(3-methyl-imidazol-4-yl)-5-[4-(trifluoromethyl)-phenyl]-benzamide], the melting point is 78.5 °C. In addition, the Kb in data set [1] amounted to 360 nM.
